The text below walks through data of PubChem BioAssay AID248 (DTP/NCI, 2004).

This test has as its system L1210 leukemia ip in BDF1 mice, survival T/C. Kind of test: NCI In Vivo Anticancer Drug Screen. Data for tumor model L1210 Leukemia (intraperitoneal) in B6D2F1 (BDF1) mice. The following applies: endpoint: mean survival time, higher = longer survival. In short, it runs like this:
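Mice bearing the transplanted tumor received compound or vehicle. Survival of the treated group was divided by that of the vehicle-treated control group to give the ratio.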

Setting [1] is: dose: 100.0 mg/kg/injection, schedule: Q04DX003 (ip), vehicle: saline.
Where [2] appears, read: dose: 200.0 mg/kg/injection, schedule: Q04DX003 (ip), vehicle: saline.
Setting [3] is: dose: 100.0 mg/kg/injection, schedule: Q04DX003 (ip), vehicle: saline with Tween-80.
The mark [4] stands for this setting: dose: 200.0 mg/kg/injection, schedule: Q04DX003 (ip), vehicle: saline with Tween-80.
Where [5] appears, read: dose: 100.0 mg/kg/injection, schedule: Q01DX001 (ip), vehicle: saline.
The mark [6] stands for this setting: dose: 200.0 mg/kg/injection, schedule: Q01DX001 (ip), vehicle: saline.
Setting [7] is: dose: 400.0 mg/kg/injection, schedule: Q01DX001 (ip), vehicle: saline.
[8] abbreviates: dose: 100.0 mg/kg/injection, schedule: Q01DX009 (ip), vehicle: saline.
The mark [9] stands for this setting: dose: 200.0 mg/kg/injection, schedule: Q01DX009 (ip), vehicle: saline.
[10] abbreviates: dose: 50.0 mg/kg/injection, schedule: Q04DX003 (ip), vehicle: Klucel (hydroxypropylcellulose) (HPC).
[11] abbreviates: dose: 100.0 mg/kg/injection, schedule: Q01DX001 (ip), vehicle: carboxymethylcellulose (CMC).
Setting [12] is: dose: 100.0 mg/kg/injection, schedule: Q04DX003 (ip), vehicle: Klucel (hydroxypropylcellulose) (HPC).
The mark [13] stands for this setting: dose: 200.0 mg/kg/injection, schedule: Q01DX001 (ip), vehicle: carboxymethylcellulose (CMC).
[14] abbreviates: dose: 400.0 mg/kg/injection, schedule: Q01DX001 (ip), vehicle: carboxymethylcellulose (CMC).

Structures are written as SMILES. Values joined by “and” are separate entries in the source; they are usually repeats but may differ in a detail not shown here. Equal entries are not always repeated. Inconclusive results and toxic doses are left out.

With `COCCOCCN1CCN(CCCN2c3ccccc3Sc3ccc(C(F)(F)F)cc32)CC1`, the T/C was 115 % of control (dose: 4.37 mg/kg/injection, schedule: Q04DX003 (ip), vehicle: saline); 107 % of control (dose: 6.25 mg/kg/injection, schedule: Q04DX003 (ip), vehicle: saline); 121 % of control (dose: 8.75 mg/kg/injection, schedule: Q04DX003 (ip), vehicle: saline); 110 % of control (dose: 12.5 mg/kg/injection, schedule: Q04DX003 (ip), vehicle: saline); 86 % of control (dose: 17.5 mg/kg/injection, schedule: Q04DX003 (ip), vehicle: saline); 151 % of control (dose: 50.0 mg/kg/injection, schedule: Q04DX003 (ip), vehicle: saline).

`CN(C)C(=O)C1C2CCC(C2)C1C(=O)N(C)C` (stereo not given): the T/C reads like this: under setting [1], 103 % of control; under setting [2], 96 % of control; (dose: 400.0 mg/kg/injection, schedule: Q04DX003 (ip), vehicle: saline) 100 % of control.

For `COc1ccccc1NC(=S)N(C)C`, the T/C is, setting by setting: under setting [3], 96 % of control; under setting [4], 93 % of control.

With `CC(C)CCCC(C)C1CCC2C3CC=C4CC(O)CCC4(C)C3CCC12C` (stereo not given) (tested in a mixture with another compound), the T/C (dose: 50.0 mg/kg/injection, schedule: Q01DX009 (ip), vehicle: water) was 94 % of control; the T/C (dose: 100.0 mg/kg/injection, schedule: Q01DX001 (ip), vehicle: water) was 102 % of control and 108 % of control; the T/C (dose: 100.0 mg/kg/injection, schedule: Q01DX009 (ip), vehicle: water) was 102 % of control; the T/C (dose: 100.0 mg/kg/injection, schedule: Q04DX003 (ip), vehicle: water) was 90 % of control; the T/C (dose: 200.0 mg/kg/injection, schedule: Q01DX001 (ip), vehicle: water) is 105 % of control; the T/C (dose: 200.0 mg/kg/injection, schedule: Q01DX009 (ip), vehicle: water) is 103 % of control. For the same molecule, the T/C (dose: 200.0 mg/kg/injection, schedule: Q04DX003 (ip), vehicle: water) is 88 % of control; the T/C (dose: 400.0 mg/kg/injection, schedule: Q01DX001 (ip), vehicle: water) is 105 % of control; the T/C (dose: 400.0 mg/kg/injection, schedule: Q04DX003 (ip), vehicle: water) was 87 % of control.

With `OCC1OC(n2cnc3c(SSc4ncnc5c4ncn5C4OC(CO)C(O)C4O)ncnc32)C(O)C1O` (stereo not given), the T/C by setting is: under setting [5], 95 % of control; under setting [6], 106 % of control; under setting [7], 121 % of control.

For the molecule `CCC(SC(C)=O)C(=O)O` (stereo not given), the T/C runs as follows: (dose: 50.0 mg/kg/injection, schedule: Q01DX009 (ip), vehicle: saline) 96 % of control; under setting [8], 91 % of control; under setting [1], 89 % of control; under setting [9], 91 % of control; under setting [2], 96 % of control.

In the case of `CCc1ccc(N=Nc2ccc(N(C)C)cc2)cc1`, the T/C runs as follows: under setting [10], 93 % of control; under setting [11], 110 % of control; under setting [12], 96 % of control; under setting [13], 89 % of control; (dose: 200.0 mg/kg/injection, schedule: Q04DX003 (ip), vehicle: Klucel (hydroxypropylcellulose) (HPC)) 96 % of control; under setting [14], 101 % of control.

Take `C[N+](C)(CC(=O)Nc1ccc(Cl)c(Cl)c1)CC(=O)c1ccc(Cl)c(Cl)c1`: the T/C is, setting by setting: under setting [3], 100 % of control; under setting [4], 100 % of control; (dose: 400.0 mg/kg/injection, schedule: Q04DX003 (ip), vehicle: saline with Tween-80) 102 % of control.

Regarding `CSc1ncc(C(N)=O)c(N=C(C)C)n1`, the T/C is, setting by setting: (dose: 12.5 mg/kg/injection, schedule: Q04DX003 (ip), vehicle: Klucel (hydroxypropylcellulose) (HPC)) 96 % of control; (dose: 25.0 mg/kg/injection, schedule: Q04DX003 (ip), vehicle: Klucel (hydroxypropylcellulose) (HPC)) 96 % of control; under setting [10], 94 % of control; under setting [12], 97 % of control.

`O=C(O)CC(c1ccccc1)n1ccc(=O)[nH]c1=O` (stereo not given): the T/C reads like this: (dose: 25.0 mg/kg/injection, schedule: Q01DX001 (ip), vehicle: Klucel (hydroxypropylcellulose) (HPC)) 103 % of control; (dose: 50.0 mg/kg/injection, schedule: Q01DX001 (ip), vehicle: Klucel (hydroxypropylcellulose) (HPC)) 106 % of control; (dose: 100.0 mg/kg/injection, schedule: Q01DX001 (ip), vehicle: Klucel (hydroxypropylcellulose) (HPC)) 101 % of control.

Consider `COc1cc(/C=N\N=C\c2ccc(F)cc2)cc(OC)c1OC`, for which the T/C was 93 % of control (dose: 100.0 mg/kg/injection, schedule: Q01DX009 (ip), vehicle: Klucel (hydroxypropylcellulose) (HPC)); 93 % of control (dose: 200.0 mg/kg/injection, schedule: Q01DX009 (ip), vehicle: Klucel (hydroxypropylcellulose) (HPC)); 88 % of control (dose: 400.0 mg/kg/injection, schedule: Q01DX009 (ip), vehicle: Klucel (hydroxypropylcellulose) (HPC)).

As to `Cc1ccc([N+](=O)[O-])cc1NC(=O)Nc1ccc(Nc2ccccc2)cc1`, the T/C was 86 % of control (dose: 100.0 mg/kg/injection, schedule: Q04DX002 (ip), vehicle: Klucel (hydroxypropylcellulose) (HPC)); 86 % of control (dose: 200.0 mg/kg/injection, schedule: Q04DX002 (ip), vehicle: Klucel (hydroxypropylcellulose) (HPC)); 97 % of control (dose: 400.0 mg/kg/injection, schedule: Q04DX002 (ip), vehicle: Klucel (hydroxypropylcellulose) (HPC)).

For the molecule `CC(Cl)(/N=N/C(C)(Cl)c1cccc(Cl)c1)c1ccc(Cl)cc1` (stereo not given), under setting [3], the T/C is 94 % of control.

`CCOC(=O)c1ccc(N2C(N)=NC(N)=NC2(C)C)cc1`: the T/C under setting [1] was 101 % of control.

Turning to `O=S(=O)(O)CCS(=O)(=O)O`, the T/C was 97 % of control (dose: 50.0 mg/kg/injection, schedule: Q01DX001 (ip), vehicle: carboxymethylcellulose (CMC)); 100 % of control under setting [11]; 97 % of control under setting [13]; 97 % of control under setting [14].

As for `NCCCNc1ccccc1`, the T/C is 92 % of control under setting [8] and 98 % of control under setting [9].

For the molecule `Cc1c([N+](=O)[O-])cc(C(=O)Cl)cc1[N+](=O)[O-]`, the T/C (dose: 100.0 mg/kg/injection, schedule: Q04DX003 (ip), vehicle: other) is 106 % of control and the T/C (dose: 200.0 mg/kg/injection, schedule: Q04DX003 (ip), vehicle: other) was 109 % of control.

Consider `CCCN(CCC)CCCCCO`, for which the T/C runs as follows: (dose: 50.0 mg/kg/injection, schedule: Q01DX009 (ip), vehicle: saline with Tween-80) 102 % of control; (dose: 100.0 mg/kg/injection, schedule: Q01DX009 (ip), vehicle: saline with Tween-80) 106 % of control; under setting [3], 94 % of control; (dose: 200.0 mg/kg/injection, schedule: Q01DX009 (ip), vehicle: saline with Tween-80) 102 % of control; under setting [4], 102 % of control.

As for `CCCCCCCCCCCCCC(=O)O` (tested in a mixture with another compound), the T/C by setting is: (dose: 5.0 mg/kg/injection, schedule: Q01DX001 (ip), vehicle: saline) 101 % of control; (dose: 10.0 mg/kg/injection, schedule: Q01DX001 (ip), vehicle: saline) 95 % of control; (dose: 20.0 mg/kg/injection, schedule: Q01DX001 (ip), vehicle: saline) 102 % of control; (dose: 40.0 mg/kg/injection, schedule: Q01DX001 (ip), vehicle: saline) 102 % of control; (dose: 80.0 mg/kg/injection, schedule: Q01DX001 (ip), vehicle: saline) 90 % of control; under setting [5], 98 % of control.

`Cc1cc(N)c(C(=O)O)cc1C`: the T/C is, setting by setting: (dose: 50.0 mg/kg/injection, schedule: Q01DX001 (ip), vehicle: saline) 104 % of control; under setting [5], 107 % of control; under setting [6], 104 % of control; under setting [7], 104 % of control.

Turning to `CCOC(=O)CCCCC(N)=O`, the T/C is 104 % of control under setting [5], 102 % of control under setting [6] and 101 % of control under setting [7].

Consider `C[N+](C)(Cc1ccccc1)/N=C(\[O-])Cc1ccccc1`, for which the T/C was 95 % of control under setting [5] and 104 % of control under setting [6].
